Experimental data published in US10577395B2 (priority 2014, dated 2020).
Converted amounts (≈) assume the structure as drawn. Like-named read-outs stand apart in the source and are kept apart here.

How the values were obtained:
[1] = tested on: vancomycin-sensitive Staphylococcus aureus (VSSA strain ATCC 25923); experiment: Antimicrobial assay, MIC, vancomycin-sensitive S. aureus; assay type: cell-based; conditions: for MIC: Staphylococcus aureus
Protocol: (§1) Assays were carried out following the methods of Clinical and Laboratory Standards Institute; Methods for Dilution Antimicrobial Susceptibility Tests for Bacteria That Grow Aerobically; Approved Standard, […].; CLSI document M07-A8; Clinical and Laboratory Standards Institute: Wayne, Pa., 2009.
(§2) This diluted bacterial stock solution was then inoculated into a well of a V-shaped 96-well glass coated microtiter plate, supplemented with serial diluted aliquots of the antibiotic solution DMSO (4 μL), to achieve a total assay volume of 0.1 mL. The plate was then incubated at 37° C. for 18 hours, after which minimal inhibitory concentrations (MICs) were determined by monitoring the cell growth (observed as a pellet) in the wells. The lowest concentration of antibiotic (in μg/mL) capable of eliminating the cell growth in the wells is reported as the MIC.

[2] = tested on: methicillin and oxacillin-resistant Staphylococcus aureus subsp. aureus (MRSA strain ATCC 43300); experiment: Antimicrobial assay, MIC, MRSA; assay type: cell-based; conditions: for MIC: Staphylococcus aureus
Protocol: as §1, §2

[3] = tested on: Enterococcus faecium (VanA VRE, ATCC BAA-2317); experiment: Antimicrobial assay, MIC, VanA E. faecium; assay type: cell-based; conditions: for MIC: Enterococcus faecium
Protocol: as §1, §2

[4] = tested on: vancomycin-resistant Enterococcus faecalis (VanA VRE, BM4166); experiment: microbe, parasite or virus in culture; assay type: cell-based; conditions: for MIC: Enterococcus faecalis, VRE
Protocol: as §1, §2

[5] = tested on: vancomycin-resistant Enterococcus faecalis (VanB VRE, strain ATCC 51299); experiment: microbe, parasite or virus in culture; assay type: cell-based; conditions: for MIC: Enterococcus faecalis
Protocol: as §1, §2

VSSA and MRSA = experiment: Antimicrobial assay, MIC for VSSA and MRSA together; assay type: cell-based, S. aureus
Protocol: as §1, §2

VanA VRE = experiment: Antimicrobial assay, MIC for VanA VRE; assay type: cell-based, E. faecalis and E. faecium; conditions: for MIC: Enterococcus, VRE, read-out: MIC against VanA VRE; for improvement in activity against VanA VRE on introduction of the (4-chlorobiphenyl)methyl group: relative to the analogue without CBP group
Protocol: as §1, §2

[6] = relative to D-Ala-D-Ala; cited from earlier work
[7] = tested on: vancomycin-sensitive strain of E. faecium; conditions: Kahne et al., Chem. Rev. 2005; cited from earlier work
[8] = tested on: vancomycin-resistant strain of E. faecium; experiment: MIC reported by Kahne et al., vancomycin-resistant E. faecium; assay type: cell-based; conditions: Kahne data
[9] = tested on: vancomycin-resistant strain of E. faecium; conditions: Kahne et al., Chem. Rev. 2005; cited from earlier work
[10] = tested on: panel of Gram-positive bacteria (VSSA, MRSA, VanA and VanB VRE); experiment: Antimicrobial assay, MIC across the bacterial panel; assay type: cell-based, S. aureus, E. faecalis, E. faecium
Protocol: as §1, §2

[11] = read-out: MIC, MRSA S. aureus, serum concentration 10%
[12] = read-out: MIC, MRSA S. aureus, serum concentration 25%
[13] = read-out: MIC, MRSA S. aureus, serum concentration 100%
[14] = read-out: MIC, Van A E. faecium, serum concentration 10%
[15] = read-out: MIC, Van A E. faecium, serum concentration 25%
[16] = read-out: MIC, Van A E. faecium, serum concentration 100%
[17] = read-out: MIC, Van A E. faecalis, serum concentration 10%
[18] = read-out: MIC, Van A E. faecalis, serum concentration 25%
[19] = read-out: MIC, Van A E. faecalis, serum concentration 100%
[20] = read-out: MIC, VanA E. faecalis
[21] = read-out: MIC, Van B E. faecalis, serum concentration 10%
[22] = read-out: MIC, Van B E. faecalis, serum concentration 25%
[23] = read-out: MIC, Van B E. faecalis, serum concentration 100%
[24] = read-out: MIC, VanB E. faecalis

In the case of `CN[C@H](CC(C)C)C(=O)N[C@H]1C(=O)N[C@@H](CC(N)=O)C(=O)N[C@H]2C(=O)N[C@H]3C(=O)N[C@H](C(=O)N[C@H](C(=O)O)c4cc(O)cc(O)c4-c4cc3ccc4O)[C@H](O)c3ccc(c(Cl)c3)Oc3cc2cc(c3O[C@@H]2O[C@H](CO)[C@@H](O)[C@H](O)[C@H]2O[C@H]2C[C@](C)(N)[C@H](O)[C@H](C)O2)Oc2ccc(cc2Cl)[C@H]1O` [Compound 1, vancomycin, reference compound], the “MIC, sensitive S. aureus” value ([1]; ATCC 25923) is reported as 0.5 µg/mL (≈ 0.345 µM), the “MIC, sensitive S. aureus, serum concentration 10%” value ([1]; ATCC 25923, 10%) is reported as 0.5 µg/mL (≈ 0.345 µM) and the “MIC, sensitive S. aureus, serum concentration 25%” value ([1]; ATCC 25923, 25%) is reported as 0.5 µg/mL (≈ 0.345 µM). The “MIC, sensitive S. aureus, serum concentration 100%” value ([1]; ATCC 25923, 100%) was 0.5 µg/mL (≈ 0.345 µM), the “MIC, MRSA S. aureus” value ([2]; ATCC 43300) was 0.5 µg/mL (≈ 0.345 µM) and the “MIC, MRSA S. aureus, serum concentration 10%” value ([2]; ATCC 43300, 10%) was 0.5 µg/mL (≈ 0.345 µM). For the same compound, the “MIC, MRSA S. aureus, serum concentration 25%” value ([2]; ATCC 43300, 25%) was 0.5 µg/mL (≈ 0.345 µM), the “MIC, MRSA S. aureus, serum concentration 100%” value ([2]; ATCC 43300, 100%) was 1 µg/mL (≈ 0.69 µM) and the “MIC, VanA E. faecium” value ([3]; ATCC BAA-2317) was 250 µg/mL (≈ 173 µM). The “MIC, Van A E. faecium, serum concentration 10%” value ([3]; ATCC BAA-2317, 10%) was 250 µg/mL (≈ 173 µM), the “MIC, Van A E. faecium, serum concentration 25%” value ([3]; ATCC BAA-2317, 25%) was 250 µg/mL (≈ 173 µM) and the “MIC, Van A E. faecium, serum concentration 100%” value ([3]; ATCC BAA-2317, 100%) was 500 µg/mL (≈ 345 µM). The “MIC, VanA E. faecalis” value ([4]; BM 4166) was 250 µg/mL (≈ 173 µM), the “MIC, Van A E. faecalis, serum concentration 10%” value ([4]; BM 4166, 10%) was 250 µg/mL (≈ 173 µM) and the “MIC, Van A E. faecalis, serum concentration 25%” value ([4]; BM 4166, 25%) was 250 µg/mL (≈ 173 µM). The “MIC, Van A E. faecalis, serum concentration 100%” value ([4]; BM 4166, 100%) was 500 µg/mL (≈ 345 µM), the “MIC, VanB E. faecalis” value ([5]; ATCC 51299) was 8 µg/mL (≈ 5.52 µM) and the “MIC, Van B E. faecalis, serum concentration 10%” value ([5]; ATCC 51299, 10%) was 4 µg/mL (≈ 2.76 µM). The “MIC, Van B E. faecalis, serum concentration 25%” value ([5]; ATCC 51299, 25%) was 8 µg/mL (≈ 5.52 µM), the “MIC, Van B E. faecalis, serum concentration 100%” value ([5]; ATCC 51299, 100%) was 32 µg/mL (≈ 22.1 µM) and the “MIC against VSSA and MRSA” value (VSSA and MRSA; one value stated for both strains) was 0.5 µg/mL (≈ 0.345 µM). The “MIC against VanA VRE” value (VanA VRE; stated for VanA VRE) was 250 µg/mL (≈ 173 µM), the “reduction of binding affinity for the altered ligand D-Ala-D-Lac” value [6] was 1000 fold and the “MIC, vancomycin-sensitive strain of E. faecium” value [7] was 1 µg/mL.

`CN[C@H](CC(C)C)C(=O)N[C@H]1C(=O)N[C@@H](CC(N)=O)C(=O)N[C@H]2C(=O)NC3C(=O)N[C@H](C(=O)N[C@H](C(=O)O)c4cc(O)cc(O)c4-c4cc3ccc4O)[C@H](O)c3ccc(c(Cl)c3)Oc3cc2cc(c3OC2OC(CO)C(O)[C@H](O)[C@@H]2O[C@H]2CC(C)(NCc3ccc(-c4ccc(Cl)cc4)cc3)[C@H](O)[C@H](C)O2)Oc2ccc(cc2Cl)[C@H]1O` (stereo partly drawn) [Compound 4, N-4-(4′-chlorobiphenyl)methyl vancomycin, reference compound] showed an MIC ([1]; ATCC25923, read-out: MIC, sensitive S. aureus) of 0.03 µg/mL (≈ 0.0182 µM), an MIC ([1]; ATCC25923, read-out: MIC, sensitive S. aureus, serum concentration 10%) of 0.03 µg/mL (≈ 0.0182 µM) and an MIC ([1]; ATCC25923, read-out: MIC, sensitive S. aureus, serum concentration 25%) of 0.03 µg/mL (≈ 0.0182 µM). For the same compound, the MIC ([1]; ATCC25923, read-out: MIC, sensitive S. aureus, serum concentration 100%) was 0.06 µg/mL (≈ 0.0364 µM), the MIC ([2]; read-out: MIC, MRSA S. aureus) was 0.03 µg/mL (≈ 0.0182 µM) and the MIC [2, 11] was 0.03 µg/mL (≈ 0.0182 µM). For the same compound, the MIC [2, 12] was 0.06 µg/mL (≈ 0.0364 µM), the MIC [2, 13] was 0.06 µg/mL (≈ 0.0364 µM) and the MIC [3, 14] was 2.5 µg/mL (≈ 1.52 µM). For the same compound, the MIC [3, 15] was 5 µg/mL (≈ 3.03 µM), the MIC [3, 16] was 5 µg/mL (≈ 3.03 µM) and the MIC ([3]; read-out: MIC, VanA E. faecium) was 2.5 µg/mL (≈ 1.52 µM). For the same compound, the MIC [4, 17] was 2.5 µg/mL (≈ 1.52 µM), the MIC [4, 18] was 5 µg/mL (≈ 3.03 µM) and the MIC [4, 19] was 10 µg/mL (≈ 6.06 µM). The MIC [4, 20] was 2.5 µg/mL (≈ 1.52 µM), the MIC [5, 21] was 0.03 µg/mL (≈ 0.0182 µM) and the MIC [5, 22] was 0.06 µg/mL (≈ 0.0364 µM). For the same compound, the MIC [5, 23] was 0.06 µg/mL (≈ 0.0364 µM), the MIC [5, 24] was 0.03 µg/mL (≈ 0.0182 µM) and the “improvement in activity against VSSA and MRSA on introduction of the (4-chlorobiphenyl)methyl group” value (VSSA and MRSA; Compound 4 vs Compound 1) was 20 fold. The MIC (VSSA and MRSA; Staphylococcus aureus, MRSA, read-out: MIC against VSSA and MRSA) was 0.03 µg/mL (≈ 0.0182 µM), the MIC (VanA VRE) was 2.5 µg/mL (≈ 1.52 µM) and the “improvement in activity against VanA VRE on introduction of the (4-chlorobiphenyl)methyl group” value (VanA VRE) was 100 fold. The “resistant strain less sensitive than the sensitive strain” value [8] was “about 500 times”, the “MIC, vancomycin-sensitive strain of E. faecium” value [7] was 0.03 µg/mL and the “MIC, vancomycin-resistant strain of E. faecium” value [9] was 16 µg/mL.

With `CN[C@H](CC(C)C)C(=O)N[C@H]1C(=O)N[C@@H](CC(N)=O)C(=O)N[C@H]2C(=N)NC3C(=O)N[C@H](C(=O)N[C@H](C(=O)O)c4cc(O)cc(O)c4-c4cc3ccc4O)[C@H](O)c3ccc(c(Cl)c3)Oc3cc2cc(c3OC2OC(CO)C(O)[C@H](O)[C@@H]2O[C@H]2CC(C)(NCc3ccc(-c4ccc(Cl)cc4)cc3)[C@H](O)[C@H](C)O2)Oc2ccc(cc2Cl)[C@H]1O` (stereo partly drawn) [Compound 6, N-4-(4′-chlorobiphenyl)methyl [Ψ[C(═NH)NH]Tpg^4]-vancomycin] the MIC ([1]; ATCC25923, read-out: MIC, sensitive S. aureus, serum concentration 10%, ATCC 25923, 10%) was 0.03 µg/mL (≈ 0.0182 µM), the MIC ([1]; ATCC25923, read-out: MIC, sensitive S. aureus, serum concentration 100%, ATCC 25923, 100%) was 1 µg/mL (≈ 0.606 µM) and the MIC ([1]; ATCC25923, ATCC 25923, 25%, read-out: MIC, sensitive S. aureus, serum concentration 25%) was 0.12 µg/mL (≈ 0.0728 µM). The MIC ([1]; ATCC25923, ATCC 25923, read-out: MIC, sensitive S. aureus) was 0.03 µg/mL (≈ 0.0182 µM), the MIC ([2]; read-out: MIC, MRSA S. aureus) was 0.06 µg/mL (≈ 0.0364 µM) and the MIC [2, 11] was 0.06 µg/mL (≈ 0.0364 µM). The MIC [2, 12] was 0.24 µg/mL (≈ 0.146 µM), the MIC [2, 13] was 1 µg/mL (≈ 0.606 µM) and the MIC [3, 14] was 0.005 µg/mL (≈ 0.00303 µM). For the same compound, the MIC [3, 15] was 0.06 µg/mL (≈ 0.0364 µM), the MIC [3, 16] was 0.5 µg/mL (≈ 0.303 µM) and the MIC ([3]; read-out: MIC, VanA E. faecium) was 0.005 µg/mL (≈ 0.00303 µM). For the same compound, the MIC [4, 17] was 0.005 µg/mL (≈ 0.00303 µM), the MIC [4, 18] was 0.06 µg/mL (≈ 0.0364 µM) and the MIC [4, 19] was 0.5 µg/mL (≈ 0.303 µM). It also gave an MIC [4, 20] of 0.005 µg/mL (≈ 0.00303 µM), an MIC [5, 21] of 0.06 µg/mL (≈ 0.0364 µM) and an MIC [5, 22] of 0.12 µg/mL (≈ 0.0728 µM). For the same compound, the MIC [5, 23] was 1 µg/mL (≈ 0.606 µM), the MIC [5, 24] was 0.06 µg/mL (≈ 0.0364 µM) and the “increase in activity against VanA VRE relative to vancomycin (Compound 1)” value (VanA VRE) was 50,000 fold. The MIC (VanA VRE) was 0.005 µg/mL (≈ 0.00303 µM), the “improvement in activity against VanA VRE on introduction of the (4-chlorobiphenyl)methyl group” value (VanA VRE) was 100 fold and the “potency relative to Compound 17, on average across the panel” value [10] was 15 fold.
